Where a name gives a salt, the structure may show the parent alone.
Experiments:
Experiment in all cases: MIC, agar dilution
Format in all cases: cell-based
Micrococcus luteus, 2495 = conditions: K-10 agar, 10^4 CFU, 37°C; for MIC: Micrococcus luteus, 2495, 18 h, read-out: M.I.C.
In short: (§1)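 Broth cultures grown 18-20 h at 37°C, diluted 1:100 in K-10 broth, applied by multipoint inoculator at 10^4 CFU onto K-10 agar holding twofold compound dilutions, 100 to 0.05 µg/ml final. MIC taken as lowest concentration inhibiting growth.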

[1] = test system: Streptococcus agalactiae, 9287; conditions: Streptococcus agalactiae, 9287, 18 h, K-10 agar, 10^4 CFU, 37°C, read-out: M.I.C.
In short: as §1

[2] = test system: Enterobacter cloacae, 8236; conditions: Enterobacter cloacae, 8236, 18 h, K-10 agar, 10^4 CFU, 37°C
In short: as §1

[3] = test system: Pseudomonas aeruginosa, 8329; conditions: K-10 agar, 10^4 CFU, 37°C, 18 hours, read-out: M.I.C.
In short: (§2)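 MIC, the lowest compound concentration preventing visible growth, is read after plates incubate 18 h at 37°C. Plates hold K-10 agar with twofold drug dilutions spanning 100 to 0.05 µg/ml, each spot-inoculated with 10^4 CFU.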

Escherichia coli, 8294 = conditions: Escherichia coli, 8294, 18 h, K-10 agar, 10^4 CFU, 37°C
In short: as §2

Proteus rettgeri, 8479 = conditions: Providencia rettgeri, K-10 agar, 10^4 CFU, 37°C, 18 hours, read-out: M.I.C.
In short: as §2

[4] = test system: Staphylococcus aureus, 10165; conditions: Staphylococcus aureus, 10165; K-10 agar, 10^4 CFU, 37°C, 18 hours; read-out: M.I.C.
In short: as §2

Proteus mirabilis, 3855 = conditions: Proteus mirabilis, 3855, 18 h, K-10 agar, 10^4 CFU, 37°C, read-out: M.I.C.
In short: as §2

Shigella sonnei, 8449 = conditions: Shigella sonnei, 8449, 18 h, K-10 agar, 10^4 CFU, 37°C
In short: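 Shigella sonnei grown 18–20 h at 37°C in broth, diluted 1:100 and spotted at 10^4 CFU onto K-10 agar holding twofold compound dilutions (final 100 to 0.05 µg/ml). After 18 h at 37°C, MIC was read as the lowest concentration inhibiting growth.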

[5] = test system: Enterobacter aerogenes, 10078; conditions: Klebsiella aerogenes, 10078, 18 h, Enterobacter aerogenes, 10078; K-10 agar, 10^4 CFU, 37°C, 18 hours; read-out: M.I.C.
In short: as §2

[6] = test system: Klebsiella pneumoniae, 9527; conditions: Klebsiella pneumoniae, 9527, 18 h, K-10 agar, 10^4 CFU, 37°C, read-out: M.I.C.
In short: as §2

Escherichia coli, 10857 = conditions: Escherichia coli, 10857, 18 h, K-10 agar, 10^4 CFU, 37°C
In short: as §2

[7] = test system: Staphylococcus aureus, 1276; conditions: Staphylococcus aureus, 1276; K-10 agar, 10^4 CFU, 37°C, 18 hours; read-out: M.I.C.
In short: as §2

[8] = test system: Serratia marcescens, 9783; conditions: K-10 agar, 10^4 CFU, 37°C; for MIC: Serratia marcescens, 9783, 18 h, read-out: M.I.C.
In short: as §2

Escherichia coli, 10909 = conditions: K-10 agar, 10^4 CFU, 37°C, 18 hours
In short: as §2

[9] = test system: Klebsiella aerogenes, 10440; conditions: K-10 agar, 10^4 CFU, 37°C, 18 hours, read-out: M.I.C.
In short: as §2

[10] = test system: Citrobacter freundii, 9518; conditions: K-10 agar, 10^4 CFU, 37°C, 18 hours, read-out: M.I.C.
In short: as §2

[11] = test system: Staphylococcus aureus, 2400; conditions: Staphylococcus aureus, 2400; K-10 agar, 10^4 CFU, 37°C, 18 hours; read-out: M.I.C.
In short: as §2

Escherichia coli, 10896 = conditions: K-10 agar, 10^4 CFU, 37°C, 18 hours
In short: as §2

Proteus vulgaris, 9416 = conditions: K-10 agar, 10^4 CFU, 37°C, 18 hours, read-out: M.I.C.
In short: as §2

[12] = test system: Acinetobacter calcoaceticus, 8333; conditions: Acinetobacter calcoaceticus, 8333, 18 h, K-10 agar, 10^4 CFU, 37°C, read-out: M.I.C.
In short: as §2

[13] = test system: Staphylococcus aureus, 2399; conditions: Staphylococcus aureus, 2399, 18 h, Staphylococcus aureus, 2399; K-10 agar, 10^4 CFU, 37°C, 18 hours; read-out: M.I.C.
In short: as §2

Salmonella typhosa, 1195 = conditions: Salmonella enterica, TYPHOSA, 18 h, K-10 agar, 10^4 CFU, 37°C
In short: as §2

[14] = test system: Pseudomonas aeruginosa, 9545; conditions: Pseudomonas aeruginosa, 9545, 18 h, K-10 agar, 10^4 CFU, 37°C, read-out: M.I.C.
In short: as §2

[15] = test system: Streptococcus faecalis, 9011; conditions: Enterococcus faecalis; Streptococcus faecalis, 9011; K-10 agar, 10^4 CFU, 37°C, 18 hours; read-out: M.I.C.
In short: as §2

| Structure (SMILES) | MIC [1] | MIC [2] | MIC [3] | MIC (Escherichia coli, 8294) | MIC (Proteus rettgeri, 8479) | MIC [4] | MIC (Proteus mirabilis, 3855) | MIC (Shigella sonnei, 8449) | MIC [5] | MIC [6] | MIC (Escherichia coli, 10857) | MIC [7] | MIC (Escherichia coli, 10909) | MIC [9] | MIC [10] | MIC [11] | MIC (Escherichia coli, 10896) | MIC (Proteus vulgaris, 9416) | MIC [12] | MIC [13] | also measured |
| --- | --- | --- | --- | --- | --- | --- | --- | --- | --- | --- | --- | --- | --- | --- | --- | --- | --- | --- | --- | --- | --- |
| CC1C(NC(=O)C(NC(=O)N2CCN(N=Cc3ccco3)C2=O)c2ccccc2)C(=O)N1S(=O)(=O)O (stereo not drawn) [Example 11, [3S-[3α(R*),4β]]-3-[[[[[3-[(2-furanyl-methylene)amino]-2-oxo-1-imidazolidinyl]-carbonyl]amino]phenylacetyl]amino]-4-methyl-2-oxo-1-azetidinesulfonic acid, potassium salt] | 0.4 µg/mL | 0.8 µg/mL | 12.5 µg/mL | 1.6 µg/mL | 0.4 µg/mL | > 100 µg/mL | 0.4 µg/mL | 0.4 µg/mL | 1.6 µg/mL | 0.1 µg/mL | < 0.05 µg/mL | 25 µg/mL | 0.1 µg/mL | 0.8 µg/mL | 0.8 µg/mL | 25 µg/mL | 0.4 µg/mL | < 0.05 µg/mL | 12.5 µg/mL | 25 µg/mL | MIC (Micrococcus luteus, 2495): 6.3 µg/mL; MIC [8]: 0.8 µg/mL; MIC (Salmonella typhosa, 1195): 0.2 µg/mL; MIC [14]: 1.6 µg/mL; MIC [15]: > 100 µg/mL |
| COC1(NC(=O)Cc2ccccc2)C(=O)N(S(=O)(=O)O)C1C (stereo not drawn) [Example 29, (3S-trans)-3-Methoxy-4-methyl-2-oxo-3-[(phenylacetyl)-amino]-1-azetidinesulfonic acid, potassium salt] | > 100 µg/mL | > 100 µg/mL | > 100 µg/mL | > 100 µg/mL | > 100 µg/mL | > 100 µg/mL | > 100 µg/mL | > 100 µg/mL | > 100 µg/mL | 100 µg/mL | > 100 µg/mL | > 100 µg/mL | 100 µg/mL | > 100 µg/mL | > 100 µg/mL | > 100 µg/mL | 100 µg/mL | > 100 µg/mL | > 100 µg/mL | > 100 µg/mL | MIC (Micrococcus luteus, 2495): > 100 µg/mL; MIC [8]: > 100 µg/mL; MIC (Salmonella typhosa, 1195): > 100 µg/mL; MIC [14]: > 100 µg/mL; MIC [15]: > 100 µg/mL |
| CON=C(C(=O)NC1C(=O)N(S(=O)(=O)O)C1C)c1csc(N)n1 (stereo not drawn) [Example 5, [3S-[3α(Z),4β]]-3-[[2-Amino-4-thiazolyl) (methoxyimino)-acetyl]amino]-4-methyl-2-oxo-1-azetidinesulfonic acid, potassium salt] | 3.1 µg/mL | 0.2 µg/mL | 100 µg/mL | 0.1 µg/mL | < 0.05 µg/mL | > 100 µg/mL | 0.1 µg/mL | 0.1 µg/mL | 0.4 µg/mL | 0.1 µg/mL | < 0.05 µg/mL | 100 µg/mL | < 0.05 µg/mL | 0.2 µg/mL | 0.1 µg/mL | 50 µg/mL | 0.1 µg/mL | < 0.05 µg/mL | 12.5 µg/mL | 100 µg/mL | M.I.C. (Micrococcus luteus, 2495; 18 hours, potassium salt): 3.1 µg/mL; M.I.C. ([8]; 18 hours, potassium salt): 0.8 µg/mL; MIC (Salmonella typhosa, 1195): < 0.05 µg/mL; MIC [14]: 0.8 µg/mL; MIC [15]: > 100 µg/mL |
